Values after ≈ are worked out from the molar mass of the structure shown.
How the values were obtained:
Type in all cases: cell-based
[1] = tested on: Fusarium falciforme FS1 (ATCC MYA-3636); test: Fungal MIC Protocol, Fusarium falciforme; conditions: Fusarium falciforme; 100% growth inhibition at 48 hours; read-out: MIC Fusarium falciforme 3636
Procedure, shortened: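 MIC against Fusarium falciforme was determined by broth microdilution in RPMI/MOPS medium containing glucose. Compounds started at 200 ug/mL and were serially diluted ten times, then combined with harvested spores adjusted to an OD530 of 0.005. Controls held compound without cells and spores without compound. Plates were bagged and incubated at 35° C. for 48 hours.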

[2] = tested on: Aspergillus flavus AFL1 (ATCC MYA-3631); test: Fungal MIC Protocol, Aspergillus flavus; conditions: Aspergillus flavus; 100% growth inhibition at 48 hours; read-out: MIC Aspergillus flavus 3631
Procedure, shortened: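 The MIC against Aspergillus flavus was measured by broth microdilution in RPMI/MOPS medium at pH 7.0. Compounds were diluted to 200 ug/mL from DMSO stocks, then ten serial dilutions were tested in duplicate in round bottom 96-well plates. Spores adjusted to a final OD530 of 0.002 were added, with no-cell and no-compound control wells, and plates were incubated 48 hours at 35° C.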

[3] = tested on: Fusarium solani (ATCC 58877); test: Fungal MIC Protocol, Fusarium solani; conditions: Fusarium solani, ATCC58877; 100% growth inhibition at 48 hours; read-out: MIC Fusarium solani 58877
Procedure, shortened: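 Broth microdilution MIC test against Fusarium solani in RPMI/MOPS medium at pH 7.0. Compounds from DMSO stock were diluted to 200 ug/mL, then serially diluted ten times and plated in duplicate at 50 μl per well. 50 ul of spore suspension at OD530 0.005 was added. Controls had compound without cells and spores without compound. Plates were mixed gently, bagged, and incubated at 35° C. for 48 hours.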

[4] = tested on: Mucor circinelloides 1463(62) (ATCC 26759); test: Fungal MIC Protocol, Mucor circinelloides (MIC-50); conditions: Mucor circinelloides, ATCC26759; 50% growth inhibition at 48 hours; read-out: MIC-50 Mucorales circinelloides 26579
Procedure, shortened: (§1)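 Harvested spores, adjusted by OD530 to about 2×10^4 cfu/mL in RPMI/MOPS pH 7.0, are mixed with ten duplicate serial dilutions of compound. Incubation runs 48 h at 35° C before visual scoring of the lowest concentration inhibiting growth >50%.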

Candida albicans GDH2346 = test: Candida Minimal Inhibitory Concentration (MIC); conditions: Candida albicans, GDH2346; 50% growth inhibition at 48 hours; read-out: MIC-50 Candida albicans GDH2346
Procedure, shortened: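 Twofold serial dilutions from 200 μg/mL in RPMI 1640/MOPS with glucose, pH 7.0, tested in duplicate against yeast from an OD600 1.0 suspension diluted 1:1000. Incubated at 35° C; OD600 read at 24 and 48 h.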

[5] = tested on: Mucor ramosissimus 057718 (ATCC 90286); test: Fungal MIC Protocol, Mucor ramosissimus (MIC-50); conditions: Mucor ramosissimus, ATCC90286; 50% growth inhibition at 48 hours; read-out: MIC-50 Mucorales ramosissimus 90286
Procedure, shortened: as §1

[6] = tested on: Aspergillus fumigatus T33439 (ATCC MYA-3626); test: Fungal MIC Protocol, Aspergillus fumigatus; conditions: Aspergillus fumigatus; 100% growth inhibition at 48 hours; read-out: MIC Aspergillus fumigatus 3626
Procedure, shortened: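 This broth microdilution MIC test used RPMI/MOPS medium at pH 7.0 with glucose. Compounds were diluted from DMSO stock to 200 ug/mL and serially diluted ten times in 96-well round bottom plates. Equal volumes of compound and Aspergillus spore suspension at OD530 0.002 were combined, with controls of compound without cells and spores without compound. Plates were bagged and incubated at 35° C. for 48 hours.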

## Cn1c(-c2ccc(C3=CCN(C(=N)N)CC3)cc2)nnc1-c1ccc(C2=CCN(C(=N)N)CC2)c(C(F)(F)F)c1 [Example 25, 4-(4-(5-(4-(1-Carbamimidoyl-1,2,3,6-tetrahydropyridin-4-yl)-3-(trifluoromethyl)phenyl)-4-methyl-4H-1,2,4-triazol-3-yl)phenyl)-5,6-dihydropyridine-1(2H)-carboximidamide]
[1]
  MIC: 0.2 µg/mL (≈ 0.364 µM)
[2]
  MIC: 0.39 µg/mL (≈ 0.71 µM)
[3]
  MIC: 0.2 µg/mL (≈ 0.364 µM)
[4]
  MIC50: 0.78 µg/mL (≈ 1.42 µM)
Candida albicans GDH2346
  MIC50: 0.78 µg/mL (≈ 1.42 µM)
[5]
  MIC50: 3.13 µg/mL (≈ 5.69 µM)
[6]
  MIC: 0.2 µg/mL (≈ 0.364 µM)

## Cn1c(-c2ccc(C3=CCN(C(=N)N)C3)cc2)nnc1-c1ccc(C2=CCN(C(=N)N)C2)c(C(F)(F)F)c1 [Example 27, 3-(4-(5-(4-(1-Carbamimidoyl-2,5-dihydro-1H-pyrrol-3-yl)-3-(trifluoromethyl)phenyl)-4-methyl4H-1,2,4-triazol-3-yl)phenyl)-2,5-dihydro-1H-pyrrole-1-carboximidamide]
[1]
  MIC: < 0.1 µg/mL
[2]
  MIC: 0.39 µg/mL (≈ 0.748 µM)
[3]
  MIC: 0.2 µg/mL (≈ 0.383 µM)
[4]
  MIC50: 0.78 µg/mL (≈ 1.5 µM)
Candida albicans GDH2346
  MIC50: 0.39 µg/mL (≈ 0.748 µM)
[5]
  MIC50: 6.25 µg/mL (≈ 12 µM)
[6]
  MIC: < 0.1 µg/mL

## Cn1c(-c2ccc(C3=CCN(C(=N)N)C3)cc2)nnc1-c1ccc(C2=CCN(C(=N)N)C2)cc1 [Example 29]
[1]
  MIC: < 0.1 µg/mL
[2]
  MIC: 0.39 µg/mL (≈ 0.86 µM)
[3]
  MIC: 0.39 µg/mL (≈ 0.86 µM)
[4]
  MIC50: 6.25 µg/mL (≈ 13.8 µM)
Candida albicans GDH2346
  MIC50: 1.56 µg/mL (≈ 3.44 µM)
[5]
  MIC50: 6.25 µg/mL (≈ 13.8 µM)
[6]
  MIC: < 0.1 µg/mL

## N=C(N)N1CC=C(c2ccc(-c3cn(-c4ccc(C5=CCN(C(=N)N)CC5)cc4)nn3)cc2)CC1 [Example 30, 4(4-{1-[4-(1-Carbamimidoyl-1,2,3,6-tetrahydropyridin-4-yl)phenyl]-1H-1,2,3-triazol-4-yl}phenyl)-1,2,3,6-tetrahydropyridine-1-carboximidamide]
[1]
  MIC: 0.01 µg/mL (≈ 0.0214 µM)
[2]
  MIC: 0.06 µg/mL (≈ 0.128 µM)
[3]
  MIC: < 0.05 µg/mL
[4]
  MIC50: 0.1 µg/mL (≈ 0.214 µM)
Candida albicans GDH2346
  MIC50: 0.63 µg/mL (≈ 1.35 µM)
[5]
  MIC50: 0.78 µg/mL (≈ 1.67 µM)
[6]
  MIC: 0.01 µg/mL (≈ 0.0214 µM)

## Cc1c(-c2ccc(C3=CCN(C(=N)N)CC3)cc2)nnn1-c1ccc(C2=CCN(C(=N)N)CC2)cc1 [Example 31, 4-(4-{1-[4-(1-Carbamimidoyl-1,2,3,6-tetrahydropyridin-4-yl)phenyl]-5-methyl-1H-1,2,3-triazol-4-yl}phenyl)-1,2,3,6-tetrahydropyridine-1-carboximidamide]
[1]
  MIC: < 0.05 µg/mL
[2]
  MIC: < 0.05 µg/mL
[3]
  MIC: < 0.05 µg/mL
[4]
  MIC50: 0.78 µg/mL (≈ 1.62 µM)
Candida albicans GDH2346
  MIC50: 0.1 µg/mL (≈ 0.208 µM)
[5]
  MIC50: 1.56 µg/mL (≈ 3.24 µM)
[6]
  MIC: < 0.05 µg/mL

## Cc1cc(C2=CCN(C(=N)N)CC2)ccc1-n1nnc(-c2ccc(C3=CCN(C(=N)N)CC3)cc2)c1C [Example 32, 4-(4-(1-(4-(1-Carbamimidoyl-1,2,3,6-tetrahydropyridin-4-yl)-2-methylphenyl)-5-methyl-1H-1,2,3-triazol-4-yl)phenyl)-5,6-dihydropyridine-1(2H)-carboximidamide]
[1]
  MIC: < 0.1 µg/mL
[2]
  MIC: 0.39 µg/mL (≈ 0.787 µM)
[3]
  MIC: 0.78 µg/mL (≈ 1.57 µM)
[4]
  MIC50: 0.78 µg/mL (≈ 1.57 µM)
Candida albicans GDH2346
  MIC50: 0.08 µg/mL (≈ 0.161 µM)
[5]
  MIC50: 6.25 µg/mL (≈ 12.6 µM)
[6]
  MIC: 0.78 µg/mL (≈ 1.57 µM)

## Cc1cc(-n2nnc(-c3ccc(C4=CCN(C(=N)N)CC4)cc3)c2C)ccc1C1=CCN(C(=N)N)CC1 [Example 33, 4-(4-{4-[4-(1-Carbamimidoyl-1,2,3,6-tetrahydropyridin-4-yl)phenyl]-5-methyl-1H-1,2,3-triazol-1-yl}-2-methylphenyl)-1,2,3,6-tetrahydropyridne-1-carboximidamide]
[1]
  MIC: 0.05 µg/mL (≈ 0.101 µM)
[2]
  MIC: 0.04 µg/mL (≈ 0.0807 µM)
[3]
  MIC: 0.025 µg/mL (≈ 0.0504 µM)
[4]
  MIC50: 3.13 µg/mL (≈ 6.32 µM)
Candida albicans GDH2346
  MIC50: 0.08 µg/mL (≈ 0.161 µM)
[5]
  MIC50: 12.5 µg/mL (≈ 25.2 µM)
[6]
  MIC: 0.63 µg/mL (≈ 1.27 µM)

Reference: patent US20240018121A1, “NOVEL HETEROAROMATIC COMPOUNDS EXHIBITING ANTIFUNGAL ACTIVITY AND THEIR METHOD OF USE” (FOX CHASE CHEMCIAL DIVERSITY CENTER, INC., priority 2020, published 2024)
